According to patent US5840936A, “Aminosterol compounds useful as inhibitors of the sodium/proton exchanger (NHE)” (priority 1995, dated 1998):
“Also recorded” adds a separate entry of the source.

Columns and labels:
[1] = test system: Human coronary artery smooth muscle cells; assay: Growth inhibition in vitro, human coronary artery smooth muscle cells; type: cell-based; details: 10 μg/ml
From the text: (§1) As set forth in Table 7 below, all malignant tumors evaluated in tissue culture, endothelial cells and vascular smooth muscle cells were sensitive to inhibition. Thus, compound 1436 has application in the control of growth factor dependent proliferation of many types of tissue.

[2] = test system: Xenopus tadpoles, stage 59-60; assay: Xenopus tadpole assay; details: 10 μg/ml
[3] = test system: Human colon carcinoma SW948; assay: Growth inhibition in vitro, SW948; type: cell-based; details: 10 μg/ml
From the text: as §1

[4] = test system: Human ovarian carcinoma SKOV3; assay: Growth inhibition in vitro, SKOV3; type: cell-based; details: 10 μg/ml
From the text: as §1

[5] = test system: Xenopus tadpoles, stage 59-60; details: 10 μg/mL
[6] = test system: PHA-stimulated lymphocytes; assay: Lymphocyte viability in HIV assay; type: cell-based; details: 10080 min
From the text: Results are tabulated below.

Xenopus laevis heart = assay: Isolated frog heart, persistence of beating ex vivo; details: 10 μg/ml, room temperature, adrenaline 50 μg/ml; control about one hour
Description: To determine if compound 1436 has such utility, the following experiment was performed. The heart of a juvenile Xenopus laevis frog was dissected from the living animal. The heart was placed into a Petri dish containing Krebs-Ringer buffer with adrenaline 50 μg/ml, and examined with the naked eye. At room temperature, the heart continued beating in a coordinated fashion (atrial beat followed by ventricular beat) for about one hour. In the presence of 10 μg/ml of compound 1436, spontaneous beating persisted up to 24 hours.

[7] = test system: Human microvascular endothelial cells; assay: Growth inhibition in vitro, human microvascular endothelial cells; type: cell-based; details: 10 μg/ml
From the text: as §1

[8] = test system: Human colon carcinoma HT29; assay: Growth inhibition in vitro, HT29; type: cell-based; details: 10 μg/ml
From the text: as §1

[9] = test system: human coronary artery smooth muscle; assay: Growth of human coronary artery smooth muscle in vitro; type: cell-based
From the text: Aminosterols of the invention may also have utility in inhibiting the growth factor mediated proliferation of smooth muscle within the artery. Following coronary angioplasty, reocclusion commonly occurs, secondary to reparative proliferation of the vascular smooth muscle within the wall of the surgically manipulated blood vessel. This process generally takes place over the course of 7-10 days. To evaluate whether an agent could prevent the growth factor mediated proliferation of smooth muscle within the artery, compound 1436 was evaluated in vitro for its effect on the proliferation of human coronary artery smooth muscle. Results for compound 1436 are shown in FIG. 13, and those for squalamine are shown in FIG. 14, with FIG. 15 being a composite logarithmic plot.

Human melanoma WM 1617 = assay: Growth inhibition in vitro, WM 1617; type: cell-based; details: 10 μg/ml
From the text: as §1

Murine B16 melanoma = assay: Growth inhibition in vitro, B16; type: cell-based; details: 10 μg/ml
From the text: as §1

[10] = test system: human umbilical venous endothelial cells; assay: Growth inhibition in vitro, human umbilical venous endothelial cells; type: cell-based; details: 10 μg/ml
From the text: as §1

[11] = test system: L1210 lymphoblastic leukemia; assay: Mouse model of L1210 leukemia; details: highest dose (10 mg/kg every 3 days i.p.)
From the text: C57B mice were inoculated with L1210 lymphoblastic leukemia cells at an inoculum that causes leukemia in 100% of animals.

Murine L1210 leukemia = assay: Growth inhibition in vitro, L1210; type: cell-based; details: 10 μg/ml
From the text: as §1

rabbit NHE3 = rabbit NHE3 (Oryctolagus cuniculus, UniProt P26432); assay: NHE3 inhibition, internal pH (BCECF-AM) in transfected PS120 fibroblasts; details: 10 μg/ml, acid preloaded
Chain of rabbit NHE3 (P26432 30-832): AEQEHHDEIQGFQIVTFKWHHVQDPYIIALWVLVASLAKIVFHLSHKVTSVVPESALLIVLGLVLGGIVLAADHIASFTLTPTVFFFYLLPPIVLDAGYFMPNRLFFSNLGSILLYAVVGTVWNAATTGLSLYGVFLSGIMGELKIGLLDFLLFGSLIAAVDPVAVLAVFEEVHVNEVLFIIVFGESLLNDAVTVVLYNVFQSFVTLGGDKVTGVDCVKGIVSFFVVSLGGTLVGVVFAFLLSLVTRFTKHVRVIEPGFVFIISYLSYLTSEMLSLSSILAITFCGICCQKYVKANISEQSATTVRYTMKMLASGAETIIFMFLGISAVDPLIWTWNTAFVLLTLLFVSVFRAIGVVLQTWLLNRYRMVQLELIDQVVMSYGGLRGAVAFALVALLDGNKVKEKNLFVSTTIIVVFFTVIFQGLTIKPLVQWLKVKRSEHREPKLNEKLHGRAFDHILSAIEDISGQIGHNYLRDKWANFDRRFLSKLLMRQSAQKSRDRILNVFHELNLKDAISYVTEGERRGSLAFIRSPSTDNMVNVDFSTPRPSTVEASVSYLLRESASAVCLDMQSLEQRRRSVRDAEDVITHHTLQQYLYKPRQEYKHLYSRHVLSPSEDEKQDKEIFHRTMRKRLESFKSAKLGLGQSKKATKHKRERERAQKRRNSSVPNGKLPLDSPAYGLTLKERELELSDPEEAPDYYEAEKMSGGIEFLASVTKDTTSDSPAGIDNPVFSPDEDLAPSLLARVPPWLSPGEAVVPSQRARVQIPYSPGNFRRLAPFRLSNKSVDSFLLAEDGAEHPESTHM
Description: Internal pH was measured either following acid loading or in the absence of an acid-loading challenge, with the results shown in FIGS. 1A and 1B.
Specifically, PS120 fibroblasts transfected with rabbit NHE3 were grown in supplemented Dulbecco's-modified Eagle's medium as described by Levine et al., J. Biol. Chem. 268, 1993, 25527-25535. […] For cells not acid-preloaded, the actual internal pH value was monitored as a function of time following addition of squalamine, with the results depicted in FIG. 1B.
PS120 fibroblasts transfected with rabbit NHE3 were grown and acid preloaded by exposure to 40 mM NH4 Cl as described above in conjunction with FIGS. 1A and 1B. Internal cellular pH changes expressed as the rate of pH recovery as a function of restored extracellular sodium ion concentration following exposure to 10 μg/ml of the compound were assayed with the fluorescent dye BCECF-AM as described above.

[12] = Effect on arterial resistance and blood pressure; type: in vivo, rat
Description: A 200-g rat was catheterized in the right carotid artery, and the compound was introduced over a ten-second period to a total dosage of 5 mg/kg. Within 30 seconds, the mean arterial pressure had fallen from about 100 mm Hg to about 70 mm Hg, with a marked reduction in pulse pressure from about 40 mm to about 10 mm. […] If cardiac output was basically unaffected, reduction in blood pressure would have resulted principally from a reduction in system resistance.
At that time, 40 μg of noradrenaline was introduced.

[13] = Fasting blood glucose in mice; type: in vivo, male CD-1 mice
Description: To study the effect of steroid administrator or the NHE responsible for secretion of insulin, several of the aminosterols from shark liver were administered to fasting mice. Male CD-1 mice were assigned to one of four treatment groups. Whole blood glucose was tested using glucometer (Lifescan Glucometer II and One Touch test strips). Statistical analysis was via one-way analysis of variance (ANOVA) followed by subsequent Bonferonni's t-test.

Lewis lung carcinoma = assay: Growth inhibition in vitro, Lewis lung carcinoma; type: cell-based; details: 10 μg/ml
From the text: as §1

B16 melanoma = assay: Suppression of B16 melanoma growth in C57B mice; type: in vivo, mouse
Description: The growth of B16 melanoma in C57B mice is dependent upon neovascularization.
Using the growth of B16 melanoma cells in C57B mice, a recognized model for the evaluation of inhibitors of angiogenesis on the growth of cancers, the effects of subcutaneous, intraperitoneal and oral administration of squalamine were evaluated.
Animals were implanted with B16 melanoma followed by treatment with compound 1436 or 1256 administered in a combined schedule or separately. […] Thus, a combination of these two compounds achieves a theraputic benefit in tumors dependent on neovascularization that may prevent metastatic spread.

[14] = Effect on growth and weight gain in mice; type: in vivo, C57B mice; details: 10 mg/kg QTD i.p., after 6 doses, about 1 month
Description: Animals were dosed QTD (i.p.) starting on Day 1. […] Animals receiving 5 mg/kg QTD experienced about a 50% reduction in growth, compared to untreated controls, while animals receiving 1 mg/kg QTD were affected by about 10%. […] They appeared very much like hypophysectamized animals might appear.

ELC = ELC MTT; type: cell-based; details: Table II; read-out: ELC MTT, Minimum Effective Concentration
[15] = test system: bovine pulmonary endothelial cells; assay: Growth inhibition in vitro, bovine pulmonary endothelial cells; type: cell-based; details: 10 μg/ml
From the text: as §1

[16] = test system: chick embryo vitelline capillaries; assay: Chick embryo vitelline capillary regression assay; type: in vivo; set-up: key to Vitelline capillary regression: +: Vascular reactivity; 0: No vascular reactivity; +/-: Equivocal reactivity
Method in brief: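 Compounds were applied to 3-day chick embryos in 0.1 ml of 15% Ficol 400 and PBS. Regression of vitelline capillaries was scored visually 60 minutes later.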

CC(C)[C@@H](CC[C@@H](C)[C@H]1CC[C@H]2[C@@H]3[C@H](O)C[C@H]4C[C@@H](NCCCNCCCCNCCCN)CC[C@]4(C)[C@H]3CC[C@]12C)OS(=O)(=O)O [Compound 1436]
Inhibited in vitro: Human coronary artery smooth muscle cells [1]: INHIBITED | Tadpole assay, observed effects [2]: common vascular occlusive effect; also recorded: Gradual reduction in overall activity; also recorded: Melanocytes over head and tail began to swell, first exhibiting visibly distinct nuclei, followed by rupture into fragments; also recorded: dramatic disruption of melanocytes over its head, trunk, and tail, along with depression of its nervous system; also recorded: No effects are observed on epithelial cell integrity, vascular flow, erythrocyte volume, tissue integrity, muscle fiber striation, or GI tract activity | Tadpole time to death [2]: about 2 hours | Inhibited in vitro: Human colon carcinoma SW948 [3]: INHIBITED | Inhibited in vitro: Human ovarian carcinoma SKOV3 [4]: INHIBITED | Tadpole E (epithelial) [5]: ± | Tadpole GI (gastrointestinal) [5]: - | Tadpole M (melanocytes) [5]: + | Tadpole Mus (muscle) [5]: - | Tadpole V (vascular) [5]: + | % Viability ([6]; 0.5 μM): 91% | % Viability ([6]; 10 μM): 95% | Lymphocyte viability ([6]; 10 μg/ml): 95% | % Viability ([6]; 20 μM): 90.1% | Persistence of spontaneous beating (Xenopus laevis heart): up to 24 hours | Inhibited in vitro: Human microvascular endothelial cells [7]: INHIBITED | Inhibited in vitro: Human colon carcinoma HT29 [8]: INHIBITED | Concentration maintaining quiescent state without loss of viability [9]: about 11 μg/ml | Suppression of growth of human coronary artery smooth muscle ([9]; in vitro): suppress in vitro the growth of human coronary artery smooth muscle | Inhibited in vitro: Human melanoma WM 1617 (Human melanoma WM 1617): INHIBITED | Inhibited in vitro: Murine B16 melanoma (Murine B16 melanoma): INHIBITED | Inhibited in vitro: Human umbilical venous endothelial cells [10]: INHIBITED | Survival in mice bearing L1210 leukemia [11]: significant prolongation of life | Inhibited in vitro: Murine L1210 leukemia (Murine L1210 leukemia): INHIBITED | Inhibition of rabbit NHE3 (rabbit NHE3): found to inhibit rabbit NHE3; also recorded: inhibitor of NHE3 | Reversibility of blood pressure effect ([12]; 40 μg of noradrenaline at 30 minutes): readily reversible by standard pharmacological practice | Change of effect over 30 minutes ([12]; 5 mg/kg i.v., followed for 30 minutes): without significant change | Pulse pressure after dosing ([12]; 5 mg/kg i.v., within 30 seconds, from about 40 mm): about 10 mm | Mean arterial pressure after dosing ([12]; 5 mg/kg i.v., within 30 seconds, from about 100 mm Hg): about 70 mm Hg | Hyperglycemia ([13]; i.v., 1436 in D5W, 1437 in water): caused hyperglycemia in mice | Fasting Blood Glucose Mean ± SEM ([13]; total dose 20 mg/kg i.v. (2 × 10 mg/kg), 30 min. after 2d dose): 105 ± 8.0 mg/dL | Inhibited in vitro: Lewis lung carcinoma (Lewis lung carcinoma): INHIBITED | Impact on tumor volume (B16 melanoma; compound 1436 10 mg/kg/every 3 days): no significant impact on tumor volume | Tumor growth effect of single agent compared with combination (B16 melanoma; squalamine 15 mg/kg/day, compound 1436 alone in a tolerable schedule): Neither administration of squalamine at 15 mg/kg/day nor compound 1436 alone in a tolerable schedule could achieve this effect | Growth suppression [14]: growth was almost completely inhibited | minimal effective concentration (ELC): 16.7 µg/mL | Inhibited in vitro: Bovine pulmonary endothelial cells [15]: INHIBITED | Vitelline capillary regression ([16]; 0.001 μg applied): +/- | Vitelline capillary regression ([16]; 0.01 μg applied): + | Vitelline capillary regression ([16]; 0.1 μg applied): + | Vitelline capillary regression ([16]; 1 μg applied): + | Vitelline capillary regression ([16]; 10 μg applied): + | Effect on chick embryo vessels ([16]; 3- to 5-day chick embryo): vitelline capillary regression with about the same potency as squalamine
